Tests used:
LPA1 = LPA1 (Homo sapiens, UniProt Q92633); assay: LPA1 Migration Assay (Oris); assay type: cell-based; parameters: host or cells: primary fibroblasts (lung, dermal), HFL-1, 3T3 and CHO cells expressing LPA1R; settings: read-out: Cell Migration EC50
Description: LPA1 Migration Assay Migration of primary fibroblasts (including lung, dermal), HFL-1, 3T3 and CHO cells expressing LPA1R were monitored using the Oris™ assay (Platypus Technologies, Madison, Wis.). These cells were dye (Cell Tracker Green™) loaded and serum starved for 12-24 hrs. In response to chemoattractants such as LPA and serum, the cells migrated inward in to the exclusion (detection) zone. After fixing, fluorescent cells in the detection zone were counted using a high content reader. The ability of LPA1 antagonists to inhibit cell migration is quantified by plotting cell number vs. compound concentration and curve fitting the resulting dose-response curve to a 4 parameter logistic function.

LPA/S1P GPCR of interest = molecular target: T1, LPA/S1P GPCR of interest (Homo sapiens, UniProt Q92633); assay: Beta-Arrestin based assay (PathHunter); assay type: cell-based
T1 construct: host or cells: CHO
T1 sequence (Q92633 whole entry): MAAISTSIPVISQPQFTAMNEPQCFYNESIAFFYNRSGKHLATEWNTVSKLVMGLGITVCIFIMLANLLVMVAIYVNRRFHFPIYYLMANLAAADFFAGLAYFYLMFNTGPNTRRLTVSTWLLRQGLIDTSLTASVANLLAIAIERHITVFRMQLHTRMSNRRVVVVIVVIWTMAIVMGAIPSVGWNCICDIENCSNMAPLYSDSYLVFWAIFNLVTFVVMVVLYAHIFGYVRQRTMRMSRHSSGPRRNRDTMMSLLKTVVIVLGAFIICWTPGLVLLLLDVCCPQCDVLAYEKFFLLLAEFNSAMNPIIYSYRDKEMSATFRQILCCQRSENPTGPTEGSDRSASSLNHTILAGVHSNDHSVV
Outline: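 EA Parental CHO cells (DiscoverX) were transfected with FuGENE (Roche) using CMV promoter-driven DNA constructs encoding the LPA/S1P GPCR of interest fused to a ProLink tag. Beta-arrestin recruitment in agonist mode was assessed 24-48 hrs later with PathHunter kits. Tests ran in quadruplicate in white 384 well plates, and end point luminescence was fit to a 4 parameter logistic function.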

Chain of LPA1 (Q92633 whole entry): as above

| Compound | EC50 (LPA1) [nM] | EC50 (LPA/S1P GPCR of interest) [nM] |
| --- | --- | --- |
| C[C@@H](OC(=O)Nc1c(-c2cc3sc(-c4ccc(CC(=O)O)cc4N)cc3s2)nnn1C)c1ccccc1 [IT181] | > 500 | > 500 |
| Cc1noc(-c2ccc(-c3ccc(S(C)(=O)=O)nc3)cc2)c1NC(=O)O[C@H](C)c1ccccc1 [IT139] | 50 to 500 | 50 to 500 |
| C[C@@H](OC(=O)Nc1c(-c2cc3sc(-c4ccc(Oc5ccccc5C(=O)O)cc4)cc3s2)cnn1C)c1ccccc1 [IT406] | 50 to 500 | < 50 |
| C[C@@H](OC(=O)Nc1c(-c2ccc(-c3ccc(Oc4ccc(F)cc4C(=O)O)cc3)cc2)nnn1C)c1ccccc1 [IT460] | < 50 | < 50 |
| Cc1noc(-c2ccc(-c3ccc(Oc4ccccc4C(=O)O)nn3)cc2)c1NC(=O)O[C@H](C)c1ccccc1 [IT259] | > 500 | 50 to 500 |
| C[C@@H](OC(=O)Nc1c(-c2ccc(C#CC(=O)N[C@@H](C(=O)O)c3ccccc3)cc2)cnn1C)c1ccccc1 [IT401] | 50 to 500 | > 500 |
| C[C@@H](OC(=O)Nc1c(-c2cc3sc(-c4ccc(C5(C(=O)O)CC5)c(F)c4F)cc3s2)cnn1C)c1ccccc1 [IT364] | 50 to 500 | < 50 |
| C[C@@H](OC(=O)Nc1c(-c2ccc(-c3cc(F)c(OC(C)(C)C(=O)O)c(F)c3)cc2)cnn1C)c1ccccc1 [IT503] | > 500 | 50 to 500 |
| C[C@@H](OC(=O)Nc1c(-c2ccc3cc(C#CC4(C(=O)O)CC4)ccc3c2)nnn1C)c1ccccc1 [IT146] | 50 to 500 |  |
| C[C@@H](OC(=O)Nc1c(-c2cc(F)c(-c3ccc(C4(C(=O)O)CC4)cc3)cc2F)nn2ccccc12)c1ccccc1 [IT049] | 50 to 500 |  |
| COc1ccccc1OC(=O)C1(c2cc3sc(C#Cc4cnn(C)c4NC(=O)O[C@H](C)c4ccccc4)cc3s2)CC1 [IT088] | 50 to 500 |  |
| Cc1nsc(C#Cc2cc3sc(C4(C(=O)O)CC4)cc3s2)c1NC(=O)O[C@H](C)c1ccccc1 [IT034] | 50 to 500 |  |
| C[C@@H](OC(=O)Nc1c(C#Cc2cc3sc(C4(C(=O)OCC(=O)N(C)C)CC4)cc3s2)cnn1C)c1ccccc1 [IT090] | 50 to 500 |  |

The next lines start with the values.

| EC50 (LPA1) [nM] | EC50 (LPA/S1P GPCR of interest) [nM] | Compound |
| --- | --- | --- |
| 50 to 500 |  | C[C@@H](OC(=O)Nc1c(C#Cc2ccc3cc(C4(C(=O)O)CC4)ccc3c2)sc2ncccc12)c1ccccc1 [IT035] |
| > 500 | 50 to 500 | Cc1nsc(-c2ccc(-c3ccc(OC(C)(C)C(=O)O)cc3)cc2)c1NC(=O)O[C@H](C)c1ccccc1 [IT509] |
| > 500 |  | Cc1noc(-c2ccc(-c3ccc4c(c3)NC(=O)CC4C(=O)O)cc2)c1NC(=O)O[C@H](C)c1ccccc1 (stereo partly drawn) [IT011] |
| > 500 | > 500 | Cc1nsc(-c2cc3sc(-c4cnc(C5(C(=O)O)CC5)s4)cc3s2)c1NC(=O)O[C@H](C)c1ccccc1 [IT184] |
| 50 to 500 | < 50 | Cc1nsc(-c2cc(Cl)c(-c3cc4sc(C5(C(=O)O)CC5)cc4s3)cc2F)c1NC(=O)O[C@H](C)c1ccccc1 [IT281] |
| 50 to 500 |  | COCCOC(=O)C1(c2cc3sc(C#Cc4cnn(C)c4NC(=O)O[C@H](C)c4ccccc4)cc3s2)CC1 [IT084] |
| > 500 |  | C[C@@H](OC(=O)Nc1c(C#Cc2cc3sc(C4(C(=O)O)CC4)cc3s2)oc2ccccc12)c1ccccc1 [IT074] |
| > 500 |  | Cc1noc(-c2ccc(-c3ccc4c(c3)CCCC4C(=O)O)cc2)c1NC(=O)O[C@H](C)c1ccccc1 (mixture of isomers) [IT039] |
| 50 to 500 |  | C[C@@H](OC(=O)Nc1c(-c2ccc(-c3ccc(C4(C(=O)O)CC4)cc3)cc2)sc2ncccc12)c1ccccc1 [IT031] |
| 50 to 500 |  | Cc1noc(C#Cc2cc3sc(C4(C(=O)O)CC4)cc3s2)c1NC(=O)OCc1ccccc1 [IT048] |
| 50 to 500 |  | C[C@@H](OC(=O)Nc1c(C#Cc2ccc3cc(C4(C(=O)O)CC4)ccc3c2)cnn1C1CC1)c1ccccc1 [IT015] |
| 50 to 500 |  | C[C@@H](OC(=O)Nc1c(-c2ccc(-c3ccc(C4(C(=O)O)CC4)cc3)cc2)nc2ncccn12)c1ccccc1 [IT043] |
| 50 to 500 |  | C[C@@H](OC(=O)Nc1c(-c2cc(F)c(-c3ccc(C4(C(=O)O)CC4)cc3)cc2F)nn2ncccc12)c1ccccc1 [IT061] |
| > 500 |  | Cc1noc(C#Cc2ccc3cc(CC4(C(=O)O)CC4)ccc3c2)c1NC(=O)O[C@H](C)c1ccccc1 [IT065] |
| 50 to 500 |  | C[C@@H](OC(=O)Nc1c(-c2cc(F)c(-c3ccc(C4(C(=O)O)CCOCC4)cc3)cc2F)cnn1C)c1ccccc1 [IT044] |
| 50 to 500 |  | Cc1noc(C#Cc2ccc3cc(C4(CC(=O)O)CC4)ccc3c2)c1NC(=O)O[C@H](C)c1ccccc1 [IT003] |
| 50 to 500 |  | C[C@@H](OC(=O)Nc1c(C#Cc2cc3sc(C4(C(=O)O)CC4)cc3s2)nnn1C)c1ccccc1 [IT069] |
| 50 to 500 |  | C[C@@H](OC(=O)Nc1c(-c2ccc(-c3ccc(C4(C(=O)O)CC4)cc3)cc2)nc2cnccn12)c1ccccc1 [IT032] |
